The values below come from publication PMC5794198, “Inhibitors of Trypanosoma cruzi Sir2 related protein 1 as potential drugs against Chagas disease” (PLoS Neglected Tropical Diseases, 2018).

Structures are written as SMILES.

The nature of series [1]: MTT cytotoxicity on MDCK cells. In kind it is cell-based. To be noted: dog, MDCK; CC50 cell line / EC50 T. cruzi; read-out: Selectivity Index, MDCK cells. As to the method: (§1) To evaluate toxicity towards mammalian cell lines (hepatocytes (Seralab), neurons and MDCK cells (ATCC); a renal cell line from dogs), all the compounds were assayed with MTT [66]. Additionally, for cardiotoxicity evaluation, where toxic effects in cardiomyocytes could be affecting their function before being lethal, a hERG assay was performed according to the manufacturer’s protocol Predictor hERG Fluorescence Polarization Assay (Invitrogen). Briefly, inhibition of hERG channel was analysed by competition of BNIPSpd and a high-affinity red fluorescent hERG channel ligand. BNIPSpd (9) was mixed with the ligand and membranes containing hERG channel, incubated for 2 hrs at RT and the fluorescence polarization was measured using 530 / 590 nm ex/em filters using the Synergy 2 plate reader (Biotek).

In the next series the test system is MDCK cells. Nature of the series: MTT cytotoxicity on MDCK cells. It counts as cell-based. To be noted: MTT. How it is done:
as §1

Another series deals with T1, hERG channel (Homo sapiens, UniProt Q12809).
T1 construct: purchased Invitrogen
Nature of the series: Predictor hERG Fluorescence Polarization Assay. In kind it is binding. As to the method:
as §1

The nature of another series: Solubility. In kind it is physicochemical.

T1 sequence (Q12809 whole entry): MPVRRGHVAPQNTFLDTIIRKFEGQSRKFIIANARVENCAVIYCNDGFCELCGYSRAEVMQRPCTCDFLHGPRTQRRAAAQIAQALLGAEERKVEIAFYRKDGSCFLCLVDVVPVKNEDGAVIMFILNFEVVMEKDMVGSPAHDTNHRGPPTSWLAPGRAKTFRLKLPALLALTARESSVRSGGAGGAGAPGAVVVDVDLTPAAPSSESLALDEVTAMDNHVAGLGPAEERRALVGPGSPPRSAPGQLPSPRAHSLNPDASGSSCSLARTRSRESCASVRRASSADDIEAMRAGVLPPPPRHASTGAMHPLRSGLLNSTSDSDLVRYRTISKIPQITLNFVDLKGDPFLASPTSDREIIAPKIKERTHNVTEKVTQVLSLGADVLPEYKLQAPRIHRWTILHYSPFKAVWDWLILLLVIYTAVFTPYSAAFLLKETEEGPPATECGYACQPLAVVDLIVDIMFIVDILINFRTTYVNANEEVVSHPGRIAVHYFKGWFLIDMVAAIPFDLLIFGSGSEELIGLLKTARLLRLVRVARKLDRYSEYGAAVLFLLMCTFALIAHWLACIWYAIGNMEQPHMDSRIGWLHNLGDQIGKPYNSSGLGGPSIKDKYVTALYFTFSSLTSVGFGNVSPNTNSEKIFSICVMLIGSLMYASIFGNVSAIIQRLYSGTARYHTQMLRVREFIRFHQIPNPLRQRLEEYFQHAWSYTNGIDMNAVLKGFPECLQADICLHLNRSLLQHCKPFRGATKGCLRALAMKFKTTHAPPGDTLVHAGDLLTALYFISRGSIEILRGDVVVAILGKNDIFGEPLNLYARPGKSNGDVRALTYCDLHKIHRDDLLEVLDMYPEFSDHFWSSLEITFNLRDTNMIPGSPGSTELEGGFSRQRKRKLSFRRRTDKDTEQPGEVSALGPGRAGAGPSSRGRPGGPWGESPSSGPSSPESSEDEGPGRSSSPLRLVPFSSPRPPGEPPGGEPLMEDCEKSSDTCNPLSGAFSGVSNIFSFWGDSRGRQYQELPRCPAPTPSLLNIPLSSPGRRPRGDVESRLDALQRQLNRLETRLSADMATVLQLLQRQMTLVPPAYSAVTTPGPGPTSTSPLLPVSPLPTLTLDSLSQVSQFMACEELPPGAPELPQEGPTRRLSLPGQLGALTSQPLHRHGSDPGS

Regarding `O=C1c2cccc3cccc(c23)C(=O)N1CCCNCCCCNCCCNCCCN1C(=O)c2cccc3cccc(c23)C1=O` [Compound 9, BNIP Spermidine], in series [1], the selectivity ratio stood at 35.2. The “Nephotoxicity (MDCK cells) cytotoxicity” value in the series with MDCK cells was at least 100 µM. In addition, on hERG channel, the hERG channel functional is listed as 99.6%. Moreover, the “Cardiotoxicity (hERG predictor)” value on hERG channel (fluorescence polarization competition, 2 hrs RT) was 0.36 ± 0.51%. Moreover, the Aqueous solubility entry in “Solubility” is listed as “up to 70%”.
